Target: T1, dopamine, D1 receptors (Rattus norvegicus, UniProt P18901)
T1 construct: from tissue; host or cells: rat striatum (inferred from the cited Billard et al. 1984)
Assay: 3H-SCH23390 binding test (Billard et al.)
Conditions: 3H-SCH23390 radioligand; read-out: IC50 value (the concentration of the compound required to reduce the binding of 3H-SCH23390 by 50%)
From the text: As mentioned above, the compounds of formula (I), with the exception of those in which both R^1 and R^2 are hydrogen and those in which R^3 in optionally substituted phenylsulphonyl, have useful central nervous system activity with low toxicity. […] The compounds of formula (I) and pharmaceutically-acceptable acid addition salts thereof, are potent centrally acting compounds which are useful in the treatment of depression, mild anxiety states, certain kinds of psychotic conditions such as schizophrenia and acute mania and parkinsonism.

T1 sequence (P18901 whole entry): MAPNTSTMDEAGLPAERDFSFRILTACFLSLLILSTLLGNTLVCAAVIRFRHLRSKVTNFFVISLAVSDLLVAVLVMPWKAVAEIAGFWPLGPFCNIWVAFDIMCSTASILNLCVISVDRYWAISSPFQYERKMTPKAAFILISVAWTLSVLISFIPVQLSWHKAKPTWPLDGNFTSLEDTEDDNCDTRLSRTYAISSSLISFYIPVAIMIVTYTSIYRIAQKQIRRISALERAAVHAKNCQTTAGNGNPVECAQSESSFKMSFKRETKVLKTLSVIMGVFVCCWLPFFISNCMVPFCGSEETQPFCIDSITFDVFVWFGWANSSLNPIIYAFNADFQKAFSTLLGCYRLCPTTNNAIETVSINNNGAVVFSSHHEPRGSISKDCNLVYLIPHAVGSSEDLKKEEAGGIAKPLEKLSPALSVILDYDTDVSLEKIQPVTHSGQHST

Row | Structure (SMILES) | IC50 [nM]
1 | CN1CCc2c(Br)c[nH]c2C(c2ccccc2)C1 (racemic) [Example 12, 3-Bromo-1,4,5,6,7,8-hexahydro-6-methyl-8-phenylpyrrolo[2,3-d]azepine] | 150
2 | CN1CCc2c([nH]c(Br)c2Br)C(c2ccccc2)C1 (racemic) [Example 10, 2,3-Dibromo-1,4,5,6,7,8-hexahydro-6-methyl-8-phenylpyrrolo[2,3-d]azepine] | 1100

From US5258378A, “Pyrroloazepine compounds useful as dopaminergic agents” (Lilly Industries Limited, priority 1990, dated 1993)
